According to PMC9405973, “Altered Conformational Landscape upon Sensing Guanine Nucleotides in a Disease Mutant of Elongation Factor-like 1 (EFL1) GTPase” (Biomolecules, 2022):
Several values for one entry are separate records, joined by “and”; a condition that tells them apart may be missing. Identical values can stand only once. Like-named read-outs stand apart in the source and are kept apart here.

Tests used:
[1] = tested on: wild-type Efl1; assay: ITC: binding of guanine nucleotides or Sdo1 to wild-type Efl1 (data of ref 6); design: species or system Saccharomyces cerevisiae; settings: native protein
[2] = biological target: T1, Efl1 R1086Q•Sdo1 (Saccharomyces cerevisiae, UniProt P53893, R1086Q); assay: ITC: binding of guanine nucleotides to pre-formed complex Efl1 R1086Q•Sdo1; settings: for ΔCpb: from ΔHb at 25–35 °C; for -TΔs / Δg / Δh / κ (heterotropic cooperativity): Effect of Mg^2+
T1 construct: made in house; host or cells: Efl1: Saccharomyces cerevisiae; Sdo1: Escherichia coli C41
T1 sequence (P53893 whole entry R1086Q): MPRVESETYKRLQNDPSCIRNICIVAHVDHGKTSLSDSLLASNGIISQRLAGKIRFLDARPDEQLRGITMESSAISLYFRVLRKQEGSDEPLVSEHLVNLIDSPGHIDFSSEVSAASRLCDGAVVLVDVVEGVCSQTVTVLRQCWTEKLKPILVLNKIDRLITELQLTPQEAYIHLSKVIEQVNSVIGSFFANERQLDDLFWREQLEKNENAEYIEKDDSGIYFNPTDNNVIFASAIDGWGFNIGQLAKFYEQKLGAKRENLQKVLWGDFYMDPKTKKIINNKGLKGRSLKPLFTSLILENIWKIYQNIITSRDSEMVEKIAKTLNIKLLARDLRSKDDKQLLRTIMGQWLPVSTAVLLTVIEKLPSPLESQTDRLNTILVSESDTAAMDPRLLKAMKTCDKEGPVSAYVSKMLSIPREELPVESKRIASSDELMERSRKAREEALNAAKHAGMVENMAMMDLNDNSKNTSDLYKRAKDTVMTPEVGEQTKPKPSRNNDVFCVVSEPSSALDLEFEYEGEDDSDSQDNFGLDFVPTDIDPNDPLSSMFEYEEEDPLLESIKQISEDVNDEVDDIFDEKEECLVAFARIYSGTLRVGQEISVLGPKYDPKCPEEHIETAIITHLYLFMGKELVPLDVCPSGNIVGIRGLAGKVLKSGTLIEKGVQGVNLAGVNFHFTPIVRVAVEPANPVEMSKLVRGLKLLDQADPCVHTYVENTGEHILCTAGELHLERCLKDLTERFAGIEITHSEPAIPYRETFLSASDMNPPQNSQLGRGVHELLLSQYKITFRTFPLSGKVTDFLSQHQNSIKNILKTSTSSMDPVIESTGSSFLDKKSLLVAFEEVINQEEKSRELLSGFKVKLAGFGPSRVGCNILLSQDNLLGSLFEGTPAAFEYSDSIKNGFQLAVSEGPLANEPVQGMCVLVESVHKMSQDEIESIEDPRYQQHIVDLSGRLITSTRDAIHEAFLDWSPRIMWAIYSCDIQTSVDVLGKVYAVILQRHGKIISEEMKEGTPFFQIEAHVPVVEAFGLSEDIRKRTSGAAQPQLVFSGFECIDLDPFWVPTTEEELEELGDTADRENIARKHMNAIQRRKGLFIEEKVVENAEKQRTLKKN
T1 sequence (Q07953 whole entry, further chain): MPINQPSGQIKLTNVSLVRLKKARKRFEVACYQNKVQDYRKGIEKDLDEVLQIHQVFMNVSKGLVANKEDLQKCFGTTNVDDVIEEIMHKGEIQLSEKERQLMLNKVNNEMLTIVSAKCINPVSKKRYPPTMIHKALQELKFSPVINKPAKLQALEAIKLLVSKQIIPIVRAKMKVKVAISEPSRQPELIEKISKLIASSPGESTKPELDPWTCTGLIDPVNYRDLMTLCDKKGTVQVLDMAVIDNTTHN
Method: All calorimetric measurements were carried out using MicroCal^TM iTC200 System (GE Healthcare, Northampton, MA, USA) in a temperature range of 25–35 °C. Experiments were performed in a buffer consisting of 50 mM Tris-HCl (pH 8.0), 150 mM NaCl, 100 µM DTT, and 5% glycerol. In the titrations with Mg^2+-bound nucleotides, both the ligand and protein solutions contained 5 mM MgCl2. In the case of titrations with Mg^2+-free nucleotide, both the ligand and protein solutions were supplemented with 2 mM EDTA to sequester any residual trace of metal ions in solution. Protein samples and ligands were prepared in the exact same buffer prior to each titration. Protein concentration in the cell comprised 30–50 µM GTPase, while the ligand concentration in the syringe was 2–3 mM for GTP, MgGTP, GDP, and MgGDP. To ensure measuring the interaction of the complex Efl1 R1086Q•Sdo1 with the nucleotide, an eight-fold concentration excess of Sdo1 was used compared with that of the enzyme. […] The titration schedule consisted of 15–20 consecutive injections of the ligand with 5 min intervals between injections and a stirring rate of 700 rpm. The dilution heat of the ligand was obtained by adding the ligand to a buffer solution under identical conditions and with the same injection schedule used for the protein sample. All samples were degassed for 10 min prior to the experiment.
The binding isotherms obtained for the isolated GTPase in the presence of Mg(II) were analysed using a ternary model in which the protein can bind to the free nucleotide (G(D)TP) or that bound to one magnesium ion (MgG(D)TP); additionally, GTP may also exist in the form of Mg2GTP, which is not recognised by the protein. The derivation of this coupled-equilibria model can be reviewed in [6, 31]. The binding constant (Kb), the enthalpy change (∆Hb), and the stoichiometry (n) were obtained with the non-linear routines implemented in Origin 5.0 (OriginLab, Co., Northampton, MA, USA) using a one-binding-site model as described in [32, 33]. The heterotropic cooperativity for the binding of guanine nucleotides and Sdo1 to Efl1 R1086Q were calculated as previously described in [6, 32]. The cooperative effects of Mg(II) on the binding of guanine nucleotides to Efl1 R1086Q alone and bound to Sdo1 were calculated as follows:κ = KE-MG/KE-G κ = KES-MG/KES-G Δh = ΔHE-MG − ΔHE-G Δh = ΔHES-MG − ΔHES-G where subscripts E-MG and E-G stand for the association of the metal-bound and metal-free guanine nucleotide with mutant Efl1, respectively. Corresponding expressions applied to the heterotropic cooperativity of the binding of nucleotides to the preformed complex, Efl1•Sdo1 (ES).
The impact of Sdo1 on the binding of Efl1 R1086Q to guanine nucleotides in the presence of magnesium ions is contained in KES-MG and ΔHES-MG relative to the KE-S and ΔHE-S values; analogous ratios report the effects in the absence of Mg(II):κ = KES-MG/KE-S κ = KES-G/KE-G Δh = ΔHES-MG − ΔHE-S Δh = ΔHES-G − ΔHE-G
The corresponding cooperative entropy change was calculated as:TΔs = Δh − Δg = Δh + RTlnκ
The detailed methodology and equations to compute the changes in the accessible surface area (∆ASA) of the GTPase upon binding to nucleotides and the ∆S energetic-based parameters are reported in [6]. Briefly, the water-accessible areas (ASAs) were computed using programme NACCESS, while the changes in accessible surface area (ΔASA) upon the formation of each GTPase–nucleotide complex were estimated considering the difference between the complex and the sum of the free interacting partners. The calculated polar (ΔASAp) and apolar (ΔASAap) area changes were subsequently used to estimate the free molecular partners. […]

[3] = tested on: wild-type Efl1; settings: cited from earlier work; for -TΔSb / Kd / ΔGb / ΔHb / ΔCpb: guanine nucleotide
[4] = Effect of Mg^2+, wild-type Efl1 − Sdo1, 30 °C
[5] = Effect of Sdo1, wild-type Efl1 − Mg^2+, 30 °C

Nc1nc2c(ncn2[C@@H]2O[C@H](COP(=O)(O)OP(=O)(O)OP(=O)(O)O)[C@@H](O)[C@H]2O)c(=O)[nH]1 [GTP]
overall heat-capacity change to drive the protein into ternary complex GTPase•GTP•Sdo1 [1]: −950 cal mol^−1 K^−1 | -TΔSb ([2]; +Mg^2+, 25 °C): -5.1 kcal/mol | ΔGb ([2]; +Mg^2+, 25 °C): -6.2 kcal/mol | ΔHb ([2]; +Mg^2+, 25 °C): -1.1 ± 0.04 kcal/mol | -TΔSb ([2]; +Mg^2+, 30 °C): -2.9 kcal/mol | Nconfres (number of residues changing conformation, absolute value) ([2]; +Mg^2+, 30 °C): 36 | Nconfrotb (number of routable bonds changing conformation, absolute value) ([2]; +Mg^2+, 30 °C): 47 | ΔCpconf ([2]; +Mg^2+, 30 °C): −375 cal mol^−1 K^−1 | ΔCprb ([2]; +Mg^2+, 30 °C): −25 cal mol^−1 K^−1 | ΔGb ([2]; +Mg^2+, 30 °C): -5.9 kcal/mol | ΔHb ([2]; +Mg^2+, 30 °C): -3.0 ± 0.2 kcal/mol | ΔSb ([2]; +Mg^2+, 30 °C): 9 cal mol^−1 K^−1 | ΔSconf ([2]; +Mg^2+, 30 °C): −78 cal mol^−1 K^−1 | ΔSsolv ([2]; +Mg^2+, 30 °C): 96 cal mol^−1 K^−1 | −ΔASAconf ([2]; +Mg^2+, 30 °C): 1683 Å^2 | -TΔSb ([2]; +Mg^2+, 35 °C): -0.9 kcal/mol | ΔGb ([2]; +Mg^2+, 35 °C): -6.0 kcal/mol | ΔHb ([2]; +Mg^2+, 35 °C): -5.1 ± 0.4 kcal/mol | ΔCpb ([2]; +Mg^2+): −400 cal mol^−1 K^−1 and −400 ± 11 cal mol^−1 K^−1 | -TΔs ([2]; Efl1 R1086Q + Sdo1, 25 °C): -2.6 kcal/mol | Δg ([2]; Efl1 R1086Q + Sdo1, 25 °C): 0.3 kcal/mol | Δh ([2]; Efl1 R1086Q + Sdo1, 25 °C): 2.9 kcal/mol | κ (heterotropic cooperativity) ([2]; Efl1 R1086Q + Sdo1, 25 °C): 0.6 | -TΔs ([2]; Efl1 R1086Q + Sdo1, 30 °C): -0.3 kcal/mol | Δg ([2]; Efl1 R1086Q + Sdo1, 30 °C): 0.6 kcal/mol | Δh ([2]; Efl1 R1086Q + Sdo1, 30 °C): 0.9 kcal/mol | κ (heterotropic cooperativity) ([2]; Efl1 R1086Q + Sdo1, 30 °C): 0.3 | -TΔs ([2]; Efl1 R1086Q + Sdo1, 35 °C): 1.9 kcal/mol | Δg ([2]; Efl1 R1086Q + Sdo1, 35 °C): 0.5 kcal/mol | Δh ([2]; Efl1 R1086Q + Sdo1, 35 °C): -1.4 kcal/mol | κ (heterotropic cooperativity) ([2]; Efl1 R1086Q + Sdo1, 35 °C): 0.5 | Kd ([2]; +Mg^2+, 25 °C): 29 ± 5 µM | Kd ([2]; +Mg^2+, 30 °C): 58 ± 7 µM | Kd ([2]; +Mg^2+, 35 °C): 52 ± 7 µM | Kd ([2]; −Mg^2+, 25 °C): 17 ± 5 µM | Kd ([2]; −Mg^2+, 30 °C): 23 ± 7 µM | Kd ([2]; −Mg^2+, 35 °C): 25 ± 7 µM | fold decrease in affinity of the preformed complex compared with the free enzyme ([2]; absence of magnesium ions): 2–4 times | -TΔSb ([2]; −Mg^2+, 25 °C): -2.5 kcal/mol | ΔGb ([2]; −Mg^2+, 25 °C): -6.5 kcal/mol | ΔHb ([2]; −Mg^2+, 25 °C): -4.0 ± 0.2 kcal/mol | -TΔSb ([2]; −Mg^2+, 30 °C): -2.6 kcal/mol | Nconfres (number of residues changing conformation, absolute value) ([2]; −Mg^2+, 30 °C): 4 | Nconfrotb (number of routable bonds changing conformation, absolute value) ([2]; −Mg^2+, 30 °C): 14 | ΔCpconf ([2]; −Mg^2+, 30 °C): 41 cal mol^−1 K^−1 | ΔGb ([2]; −Mg^2+, 30 °C): -6.5 kcal/mol | ΔHb ([2]; −Mg^2+, 30 °C): -3.9 ± 0.1 kcal/mol | ΔSb ([2]; −Mg^2+, 30 °C): 9 cal mol^−1 K^−1 | ΔSconf ([2]; −Mg^2+, 30 °C): 24 cal mol^−1 K^−1 | ΔSsolv ([2]; −Mg^2+, 30 °C): −7 cal mol^−1 K^−1 | −ΔASAconf ([2]; −Mg^2+, 30 °C): −184 Å^2 | -TΔSb ([2]; −Mg^2+, 35 °C): -2.8 kcal/mol | ΔGb ([2]; −Mg^2+, 35 °C): -6.5 kcal/mol | ΔHb ([2]; −Mg^2+, 35 °C): -3.7 ± 0.4 kcal/mol | ΔCpb ([2]; −Mg^2+): 30 cal mol^−1 K^−1 and 30 ± 6 cal mol^−1 K^−1 | -TΔs [3, 4]: -1.3 kcal/mol | Δg [3, 4]: -0.4 kcal/mol | Δh [3, 4]: 0.9 kcal/mol | κ (heterotropic cooperativity) [3, 4]: 2 | -TΔs [3, 5]: -7.0 kcal/mol | Δg [3, 5]: -1.8 kcal/mol | Δh [3, 5]: 5.2 kcal/mol | κ (heterotropic cooperativity) [3, 5]: 22.3 | -TΔSb ([3]; +Mg^2+, 30 °C): 1.0 kcal/mol | Kd ([3]; +Mg^2+, 30 °C): 125 µM | ΔGb ([3]; +Mg^2+, 30 °C): -5.4 kcal/mol | ΔHb ([3]; +Mg^2+, 30 °C): -6.4 ± 0.4 kcal/mol | ΔCpb ([3]; +Mg^2+): −560 ± 23 cal mol^−1 K^−1 and −560 cal mol^−1 K^−1 | -TΔSb ([3]; −Mg^2+, 30 °C): 2.3 kcal/mol | Kd ([3]; −Mg^2+, 30 °C): 250 µM | ΔGb ([3]; −Mg^2+, 30 °C): -5.0 kcal/mol | ΔHb ([3]; −Mg^2+, 30 °C): -7.3 ± 0.3 kcal/mol | ΔCpb ([3]; −Mg^2+): −700 ± 34 cal mol^−1 K^−1 and −700 cal mol^−1 K^−1 | fold by which Sdo1 favoured the interaction with GTP ([3]; wild-type Efl1): 20–40 fold
